{"source": "patent US11976068B2", "about": "(CHIMERIX, INC., priority 2015, dated 2024)", "key": {"TRAIL": {"system": "TRAIL", "test": "Phase I trial, serum TRAIL ELISA", "type": "in vivo, human"}, "[1]": {"system": "human foreskin fibroblasts (HFF), human fetal lung fibroblast (MRC-5) cells, human lung fibroblast cell line (WI-38)", "details": "72 hours"}, "[2]": {"system": "1020 genetically annotated cell lines", "test": "Tumor type in vitro sensitivity, GDSC cell lines, cell viability at 72 hours", "type": "cell-based", "details": "tertile of average IC50", "description": "The estimated IC50 values were averaged across multiple cell lines for each tumor type. Tumor types were categorized into three different groups that represented tertiles of average IC50 values."}, "human BCRP": {"target": "T1, human BCRP (Homo sapiens, UniProt Q9UNQ0)", "T1 sequence (Q9UNQ0 1-655)": "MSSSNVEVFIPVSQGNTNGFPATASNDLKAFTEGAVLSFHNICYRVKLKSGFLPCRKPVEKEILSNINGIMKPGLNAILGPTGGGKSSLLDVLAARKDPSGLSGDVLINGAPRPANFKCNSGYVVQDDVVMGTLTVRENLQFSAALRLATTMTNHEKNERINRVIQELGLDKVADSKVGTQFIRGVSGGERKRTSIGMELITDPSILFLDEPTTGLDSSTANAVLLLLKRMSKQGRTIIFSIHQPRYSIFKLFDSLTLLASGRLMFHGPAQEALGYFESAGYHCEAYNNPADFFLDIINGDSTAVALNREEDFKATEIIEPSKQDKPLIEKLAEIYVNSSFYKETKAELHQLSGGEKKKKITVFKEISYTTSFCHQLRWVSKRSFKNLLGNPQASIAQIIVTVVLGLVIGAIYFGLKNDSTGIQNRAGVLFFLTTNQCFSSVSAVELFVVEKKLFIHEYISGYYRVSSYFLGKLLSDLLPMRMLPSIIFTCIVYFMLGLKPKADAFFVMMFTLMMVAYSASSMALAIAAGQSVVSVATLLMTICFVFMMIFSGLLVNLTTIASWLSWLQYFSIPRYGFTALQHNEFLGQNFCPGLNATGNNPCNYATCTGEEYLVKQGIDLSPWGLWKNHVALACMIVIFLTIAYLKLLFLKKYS", "test": "BCRP inhibition, bidirectional permeability of prazosin in MDCKII-BCRP monolayers", "details": "at 200 micromolar"}}, "data": [{"smiles": "Cc1ccccc1CN1C(=O)C2=C(CCN(Cc3ccccc3)C2)N2CCN=C12", "note": "[ONC201, 7-benzyl-4-(2-methylbenzyl)-2,4,6,7,8,9-hexahydroimidazo [1,2-a]pyrido[3,4-e]pyrimidin-5(1H)-one]", "values": [{"measurement": "increase in serum TRAIL", "setting": "TRAIL; half of the patients, mostly peaked within the first 24 hours of drug administration", "value": "~20", "unit": "%"}, {"measurement": "number of patients with serum TRAIL induction", "setting": "TRAIL; serum soluble TRAIL", "value": 2}, {"measurement": "cell viability of normal cells", "setting": "[1]; about 1-5 mg/mL compound (1)", "value": "at least 75%"}, {"measurement": "viability of normal cells", "setting": "[1]; beyond about 5 mg/mL compound (1)", "value": "about 75%"}, {"measurement": "Tumor Type In Vitro Sensitivity", "setting": "[2]; tumor type Breast cancer", "value": "Low"}, {"measurement": "Tumor Type In Vitro Sensitivity", "setting": "[2]; tumor type Colon adenocarcinoma", "value": "High"}, {"measurement": "Tumor Type In Vitro Sensitivity", "setting": "[2]; tumor type NSCLC", "value": "Med"}, {"measurement": "Tumor Type In Vitro Sensitivity", "setting": "[2]; tumor type Ovarian", "value": "Med"}, {"measurement": "Tumor Type In Vitro Sensitivity", "setting": "[2]; tumor type Prostate adenocarcinoma", "value": "High"}, {"measurement": "Tumor Type In Vitro Sensitivity", "setting": "[2]; tumor type Renal cancer", "value": "Med"}, {"measurement": "Tumor Type In Vitro Sensitivity", "setting": "[2]; tumor type Small cell lung cancer", "value": "High"}, {"measurement": "Tumor Type In Vitro Sensitivity", "setting": "[2]; tumor type Spindle cell sarcoma", "value": "Low"}, {"measurement": "Tumor Type In Vitro Sensitivity", "setting": "[2]; tumor type Uterine cancer", "value": "Med"}, {"measurement": "inhibitor of BCRP", "setting": "human BCRP", "value": "inhibitor"}]}]}
